Assay results reported in patent publication US6399581B1, “Compound possessing potent thrombin receptor antagonist activity” (Harbor Branch Oceanographic Institution, Inc., priority 1999, dated 2002).

Columns and labels:
[1] = target: T1, protease-activated receptor 1 (PAR-1) (Homo sapiens, UniProt P25116); experiment: SFLLRN-induced platelet aggregation, human washed platelets; type: cell-based
T1 construct: Blood was withdrawn from the antecubal vein of healthy human volunteers; endogenous in cells; host or cells: washed platelets from blood of healthy human volunteers
T1 sequence (P25116 22-425): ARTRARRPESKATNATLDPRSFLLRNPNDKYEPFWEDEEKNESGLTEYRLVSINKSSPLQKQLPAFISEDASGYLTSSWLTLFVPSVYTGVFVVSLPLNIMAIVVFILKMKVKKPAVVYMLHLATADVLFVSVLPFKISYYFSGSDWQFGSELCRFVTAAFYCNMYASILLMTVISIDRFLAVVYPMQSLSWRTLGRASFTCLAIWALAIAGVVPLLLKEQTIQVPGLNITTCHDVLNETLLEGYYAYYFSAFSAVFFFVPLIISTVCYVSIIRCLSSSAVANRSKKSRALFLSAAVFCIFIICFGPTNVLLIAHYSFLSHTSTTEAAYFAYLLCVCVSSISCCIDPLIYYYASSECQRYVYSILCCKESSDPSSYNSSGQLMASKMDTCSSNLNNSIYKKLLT
Description: (§1) Platelet aggregation assay: Blood was withdrawn from the antecubal vein of healthy human volunteers who had taken no medication for 14 days. The blood (9 volumes) was anti-coagulated with 1 volume of 3.8% w/v tri-sodium citrate, to give a final citrate concentration of 12.9 mM. To each 20 ml volume of anti-coagulated blood 50 μl of a 10 μg/ml prostacyclin (PGI2) solution was added to prevent activation during the platelet isolation process. The prostacyclin-treated blood was then centrifuged (1280×g; 4 minutes) to yield platelet-rich plasma (PRP). […] The supernatant (platelet-poor plasma) was discarded and the platelets resuspended in a Hepes buffer (NaCl (8 g/l); NaHCO3 (1 g/l); KCl (0.2 g/l); KH2 PO4 (0.1 g/l); Hepes (1.2 g/l); D-Glucose (1 g/l) adjusted to a pH of 6.4. The resultant platelet suspension was again centrifuged (1280×g; 8 minutes) to pellet the platelets. The supernatant was discarded and the platelets resuspended in a Hepes buffer of the same composition but adjusted to a pH of 7.4. The platelet count was then adjusted to 300,000 platelets/μl, following quantification on a Sysmex K1000 Haematological analyser and CaCl2 (1 mM) and MgCl2 (0.5 mM) were added back. […]
(§2) Platelet aggregation, in a human washed platelet preparation, was quantified using an optical aggregometer. […]

[2] = system: human washed platelet preparation; experiment: U-46619-induced platelet aggregation, human washed platelets; type: cell-based; conditions: U-46619 3 μM
Description: as §1, §2

[3] = system: liver hepatocyte (HepG2) cells; experiment: Toxicity against liver hepatocyte (HepG2) cells; type: cell-based
[4] = target: T2, thrombin receptor (Homo sapiens, UniProt P25116); experiment: Thrombin receptor antagonist assay using FLIPR: thrombin-induced intracellular calcium mobilization in HeLa cells; type: cell-based; conditions: fluo-3, thrombin 0.3 U/ml
T2 construct: HeLa cells, which constitutively express the thrombin receptor; endogenous in cells; host or cells: HeLa cells
T2 sequence (P25116 22-425): T1 sequence (P25116 22-425)
Description: Tests were conducted of inhibition of thrombin-induced calcium mobilization in HeLa cells (see FIG. 2). […] The HPLC profiles of the extracts were very similar, and in both cases the biological activity resided in the same chromatographic fractions indicating common active principles. One of these was fully deconvoluted, and several active components were isolated. These were all glycosides of penasterol though differing in the number of sugar residues attached at the C-1 position.
Thrombin receptor antagonist assay using FLIPR (fluorescence)imaging plate reader: HeLa cells were suspended in complete media and the cell density measured then adjusted to give a final cell density of 2.0×10^5/ml. 100 μl of cell suspension was dispensed into 96-well microtitre plates using a Multipdrop 96/384 well plate dispenser. […] Fluorescence output was read every 1 second for the first 20 seconds then every 5 seconds for a further 30 seconds.
An assay was conducted based upon measurement of thrombin-inducedintracellular calcium mobilization in HeLa cells, which constitutively express the thrombin receptor. Intracellular calcium flux was measured using the fluorescent dye fluo-3' which in the absence of calcium ions fluoresces only weakly, but in the presence of calcium increases fluorescence by approximately 100-fold. Fluorescence was measured using a fluorescence imaging plate reader (FLIPR; see FIG. 2).

[5] = target: T1, protease-activated receptor 1 (PAR-1); experiment: Thrombin-induced platelet aggregation, human washed platelets; type: cell-based; conditions: thrombin 0.1 U/ml
Description: as §1, §2

[6] = system: rat mast cells; conditions: cited from earlier work
[7] = target: T3, C5 a-receptor (Homo sapiens, UniProt P21730); conditions: cited from earlier work
T3 sequence (P21730 1-350): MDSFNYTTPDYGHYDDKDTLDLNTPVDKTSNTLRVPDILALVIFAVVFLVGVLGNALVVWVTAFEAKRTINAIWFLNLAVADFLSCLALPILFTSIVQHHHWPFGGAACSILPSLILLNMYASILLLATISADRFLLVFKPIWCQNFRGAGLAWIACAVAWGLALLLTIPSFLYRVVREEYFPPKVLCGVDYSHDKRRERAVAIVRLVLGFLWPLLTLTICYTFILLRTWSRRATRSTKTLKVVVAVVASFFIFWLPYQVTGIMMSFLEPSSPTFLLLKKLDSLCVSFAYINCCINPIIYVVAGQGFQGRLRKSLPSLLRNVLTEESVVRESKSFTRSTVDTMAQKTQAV

CC(C)=CCC[C@@H](C)[C@H]1CC[C@@]2(C(=O)O)C3=C(CC[C@]12C)[C@@]1(C)CC[C@H](O[C@@H]2OC[C@H](O)[C@H](O)[C@H]2O[C@@H]2O[C@H](CO)[C@H](O)[C@H](O)[C@H]2O)C(C)(C)[C@@H]1CC3 [Eryloside F, eryloside F]
Fold more potent against SFLLRN- than against U-46619-induced platelet aggregation ([1]; SFLLRN 3 μM vs U-46619 3 μM): approximately 6 fold
IC50, inhibition of SFLLRN-induced platelet aggregation ([1]; SFLLRN 3 μM, human washed platelets): 0.3 µg/mL
IC50, inhibition of U-46619-induced platelet aggregation [2]: 1.7 µg/mL
Toxicity against HepG2 cells [3]: low toxicity
Inhibition of thrombin-induced calcium mobilization (thrombin receptor antagonist activity) [4]: most potent activity
Inhibitory potency against thrombin-induced platelet aggregation relative to SFLLRN-induced, fold lower [5]: approximately 20 fold

CC(=O)O[C@H]1CC[C@]2(C)C3=C(CC[C@H]2C1(C)C)[C@]1(C(=O)O)CC[C@H]([C@H](C)CCC=C(C)C)[C@@]1(C)CC3 [acetylpenasterol]
Inhibition of IgE-dependent histamine release [6]: inhibit IgE-dependent histamine release

CC(C)=CCC[C@@H](C)[C@H]1CC[C@@]2(C(=O)O)C3=C(CC[C@]12C)[C@@]1(C)CCC(=O)C(C)(C)[C@@H]1CC3 [penasterone]
Inhibition of IgE-dependent histamine release [6]: inhibit IgE-dependent histamine release

Eryloside E
Antagonism of C5a-receptor binding [7]: antagonist of C5 a-receptorbinding

Penasterol
Inhibition of IgE-dependent histamine release [6]: inhibit IgE-dependent histamine release
